Source: PubChem BioAssay (NCI)
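A five-concentration, 48-hour dose response in 96-well plates underlies each endpoint, interpolated linearly between surrounding concentrations. The concentration for full growth arrest is given as TGI.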

Key:
Assay in all cases: NCI tumour cell line growth inhibition, 48 h
[1] = system: DLD-1 colon
[2] = system: M19-MEL melanoma
[3] = system: DMS 114 small cell lung
[4] = system: XF 498 CNS
[5] = system: DMS 273 small cell lung
[6] = system: LXFL 529 NSCLC
[7] = system: RXF-631 renal
[8] = system: P388 leukemia
[9] = system: SN12K1 renal
[10] = system: P388/ADR leukemia

| Structure (SMILES) | TGI [1] [µM] | TGI [2] [µM] | TGI [3] [µM] | TGI [4] [µM] | TGI [5] [µM] | TGI [6] [µM] | TGI [7] [µM] | TGI [8] [µM] | TGI [9] [µM] | TGI [10] [µM] |
| --- | --- | --- | --- | --- | --- | --- | --- | --- | --- | --- |
| O=C(c1ccc(Cl)cc1)N(C(=S)N1CCN(c2ccccn2)CC1)C1CCCCC1 | > 100 | > 100 | > 100 | 80.3 | > 100 | > 100 | – | – | – | – |
| O=C(c1ccccc1)C1S(=O)(=O)OCCOS1(=O)=O | > 100 | > 100 | > 100 | > 100 | > 100 | > 100 | > 100 | – | – | – |
| CCOC(=O)/C(=C/c1ccc(C(=O)OC)cc1)N(CC)CC | – | > 100 | > 100 | – | – | > 100 | – | – | – | – |
| C=C(NC(=O)C(=C)NC(=O)c1csc(C2=NC3c4csc(n4)C4NC(=O)c5csc(n5)C(C(C)(O)C(C)O)NC(=O)C5CSC(=N5)/C(=C/C)NC(=O)C(C(C)O)NC(=O)c5csc(n5)C3(CC2)NC(=O)C(C)NC(=O)C(=C)NC(=O)C(C)NC(=O)C(C(C)CC)NC2C=Cc3c(C(C)O)cc(nc3C2O)C(=O)OC4C)n1)C(N)=O (configuration not stated) | 4.44 | 3.05 | 7.69 | – | 2.8 | 1.65 | 18 | 0.19 | 2.57 | – |
| O=C(O)c1ccc(C2=Cc3cc(Cl)ccc3OC2)cc1 | > 100 | > 100 | > 100 | > 100 | > 100 | > 100 | – | – | – | – |
| C=C1C(=O)O[C@@H]2[C@H](O)[C@@H](C)[C@@H]3C=CC(=O)[C@@]3(C)[C@@H](OC(=O)/C(C)=C/C)[C@H]12 | 1.31 | 1.22 | 3.63 | 0.867 | 3.56 | – | – | 2.74 | 0.688 | 1.08 |
| CCOC(=O)C(Cc1c[nH]c2cc([N+](=O)[O-])ccc12)NS(=O)(=O)c1ccc2ccccc2c1 (configuration not stated) | 65.7 | 30.9 | 38.3 | 31.3 | 32.1 | 32.5 | – | – | – | – |
| O=C1CC(c2ccccc2)=Nc2ccccc2N1 | > 100 | > 100 | – | > 100 | > 100 | > 100 | – | – | – | – |
| O=C(CSc1nc(-c2ccccc2)c(-c2ccccc2)[nH]1)N/N=C/c1ccc(O)cc1 | > 100 | 51 | 57.5 | 99.6 | 48.3 | 99.5 | – | – | – | – |
| NC1=NS(=O)(=O)Nc2nc(-c3ccccc3)[nH]c21 | > 100 | > 100 | > 100 | > 100 | > 100 | > 100 | – | – | – | – |
| O=[N+]([O-])C(/C=N/Nc1ccccc1)/C=N/Nc1ccccc1 | > 100 | > 100 | > 100 | > 100 | > 100 | > 100 | – | – | – | – |
